21 compounds from patent US10125134B2 (Mirati Therapeutics, Inc., priority 2016, dated 2018) can be followed below.

SMILES strings stand for the structures. Read-outs that look alike come from different tables or passages of the source.

What is called IC50 is the midpoint of a concentration-inhibition curve.

Test [1] deals with KRas G12C (Homo sapiens, UniProt P01116, C118S/C51S/C80L/G12C). The experiment in a line: KRas G12C Modification Assay (LCMS detection of covalent adduct). The test is classed as binding. The conditions noted are these: normalized percent of control; tested at 5 μM concentration for 3 hours. A digest of the protocol:
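Cys-light KRas G12C mutant protein incubated with compound in K-Ras assay buffer, reactions quenched at set time points with 25 mM acetic acid and analysed by intact-protein LC/MS on a C-3 column. Deconvoluted mass heights expressed as percent of control (POC) relative to compound-free protein.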

Test [2] relates to NCI-H358 cells (express KRas G12C), Phospho-ERK. The experiment in a line: Cellular inhibition of KRas G12C: Phospho-ERK in NCI-H358 cells. The test is classed as cell-based. The conditions noted are these: Homo sapiens, pERK(Thr202/Tyr204) normalized with GAPDH, NCI-H358 cells, 3 hours, read-out: IC50. A digest of the protocol:
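IC50 derived by 4-parameter fit of GAPDH-normalized pERK(Thr202/Tyr204) signal, as percent of DMSO control. Signal came from in-cell immunodetection with infrared secondaries after 3 h compound exposure of KRas G12C NCI-H358 cells at 0.5% DMSO.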

Turning to `C=CC(=O)N1CCN(c2nc(O[C@H](C)CN(C)CC)nc3c2CCN(c2cc(O)cc4ccccc24)C3)CC1` [Example 131, 1-[4-[2-[(1R)-2-[ethyl(methyl)amino]-1-methyl-ethoxy]-7-(3-hydroxy-1-naphthyl)-6,8-dihydro-5H-pyrido[3,4-d]pyrimidin-4-yl]piperazin-1-yl]prop-2-en-1-one], the POC entry in test [1] is recorded as “C (“C”>50% POC)”. Also, the IC50 in test [2] was 0.1 to 1000 nM.
As for `C=CC(=O)N1CCN(c2nc(OCC3CCN(C4CCCCC4)C3)nc3c2CCN(c2cc(O)cc4ccccc24)C3)CC1` (stereo not drawn) [Example 132, 1-[4-[2-[(1-cyclohexylpyrrolidin-3-yl)methoxy]-7-(3-hydroxy-1-naphthyl)-6,8-dihydro-5H-pyrido[3,4-d]pyrimidin-4-yl]piperazin-1-yl]prop-2-en-1-one], the POC result in test [1] was “C (“C”>50% POC)”. Also, the IC50 in test [2] (NCI-H358, 3 h) was in the range of 0.1 to 1000 nM.
For the compound `C=CC(=O)N1CCN(c2nc(NCCCN3CCOCC3)nc3c2CCN(c2cc(O)cc4ccccc24)C3)CC1` [Example 133, 1-[4-[7-(3-hydroxy-1-naphthyl)-2-(3-morpholinopropylamino)-6,8-dihydro-5H-pyrido[3,4-d]pyrimidin-4-yl]piperazin-1-yl]prop-2-en-1-one], the POC result in test [1] is “C (“C”>50% POC)”. In test [2], the IC50 was more than 1000 nM.
As to `C=CC(=O)N1CCN(c2nc(OCCCN3CCN(C(C)=O)CC3)nc3c2CCN(c2cc(O)cc4ccccc24)C3)CC1` [Example 135, 1-[4-[2-[3-(4-acetylpiperazin-1-yl)propoxy]-7-(3-hydroxy-1-naphthyl)-6,8-dihydro-5H-pyrido[3,4-d]pyrimidin-4-yl]piperazin-1-yl]prop-2-en-1-one], the POC entry in test [1] is given as “C (“C”>50% POC)”. In addition, the IC50 in test [2] (NCI-H358, 3 h) lay in the range of 0.1 to 1000 nM.
As to `C=CC(=O)N1CCN(c2nc(OCCN3CCC(OC)C3)nc3c2CCN(c2cc(O)cc4ccccc24)C3)CC1` (stereo not drawn) [Example 136, 1-[4-[7-(3-hydroxy-1-naphthyl)-2-[2-(3-methoxypyrrolidin-1-yl)ethoxy]-6,8-dihydro-5H-pyrido[3,4-d]pyrimidin-4-yl]piperazin-1-yl]prop-2-en-1-one], in test [1], the POC result is reported as “C (“C”>50% POC)”. The IC50 in test [2] (NCI-H358, 3 h) is more than 1000 nM.
For the compound `C=CC(=O)N1CCN(c2nc(OCCCN3CCC(OC)C3)nc3c2CCN(c2cc(O)cc4ccccc24)C3)CC1` (stereo not drawn) [Example 137, 1-[4-[7-(3-hydroxy-1-naphthyl)-2-[3-(3-methoxypyrrolidin-1-yl)propoxy]-6,8-dihydro-5H-pyrido[3,4-d]pyrimidin-4-yl]piperazin-1-yl]prop-2-en-1-one], in test [1], the POC result is recorded as “C (“C”>50% POC)”. In test [2] (NCI-H358, 3 h), the IC50 was more than 1000 nM.
Turning to `C=CC(=O)N1CCN(c2nc(OCCN3CC(F)(F)C3)nc3c2CCN(c2cc(O)cc4ccccc24)C3)CC1` [Example 138, 1-[4-[2-[2-(3,3-difluoroazetidin-1-yl)ethoxy]-7-(3-hydroxy-1-naphthyl)-6,8-dihydro-5H-pyrido[3,4-d]pyrimidin-4-yl]piperazin-1-yl]prop-2-en-1-one], in test [1], the POC entry is listed as “C (“C”>50% POC)”. In addition, the IC50 in test [2] (NCI-H358, 3 h) is more than 1000 nM.
For `C=CC(=O)N1CCN(c2nc(OCCN3CCC(F)(F)C3)nc3c2CCN(c2cc(O)cc4ccccc24)C3)CC1` [Example 139, 1-[4-[2-[2-(3,3-difluoropyrrolidin-1-yl)ethoxy]-7-(3-hydroxy-1-naphthyl)-6,8-dihydro-5H-pyrido[3,4-d]pyrimidin-4-yl]piperazin-1-yl]prop-2-en-1-one], in test [1], the POC result is listed as “C (“C”>50% POC)”. Moreover, the IC50 in test [2] (NCI-H358, 3 h) is more than 1000 nM.
The corresponding values for `C=CC(=O)N1CCN(c2nc(OCC3CCN(CC(=O)N(C)C)C3)nc3c2CCN(c2cc(O)cc4ccccc24)C3)CC1` (stereo not drawn) [Example 140, 2-[3-[[7-(3-hydroxy-1-naphthyl)-4-(4-prop-2-enoylpiperazin-1-yl)-6,8-dihydro-5H-pyrido[3,4-d]pyrimidin-2-yl]oxymethyl]pyrrolidin-1-yl]-N,N-dimethyl-acetamide] are “C (“C”>50% POC)” and more than 1000 nM.
`C=CC(=O)N1CCN(c2nc(OCC3CCN(CCO)C3)nc3c2CCN(c2cc(O)cc4ccccc24)C3)CC1` (stereo not drawn) [Example 141, 1-[4-[2-[[1-(2-hydroxyethyl)pyrrolidin-3-yl]methoxy]-7-(3-hydroxy-1-naphthyl)-6,8-dihydro-5H-pyrido[3,4-d]pyrimidin-4-yl]piperazin-1-yl]prop-2-en-1-one]: the POC entry in test [1] is recorded as “C (“C”>50% POC)”. Moreover, the IC50 in test [2] (NCI-H358, 3 h) is more than 1000 nM.
The matching figures for `C=CC(=O)N1CCN(c2nc(OCCO)nc3c2CCN(c2cc(O)cc4ccccc24)C3)CC1` [Example 142, 1-[4-[2-(2-hydroxyethoxy)-7-(3-hydroxy-1-naphthyl)-6,8-dihydro-5H-pyrido[3,4-d]pyrimidin-4-yl]piperazin-1-yl]prop-2-en-1-one]: “C (“C”>50% POC)” and more than 1000 nM.
With `C=CC(=O)N1CCN(c2nc(OCC(O)CO)nc3c2CCN(c2cc(O)cc4ccccc24)C3)CC1` (stereo not drawn) [Example 143, 1-[4-[2-(2,3-dihydroxypropoxy)-7-(3-hydroxy-1-naphthyl)-6,8-dihydro-5H-pyrido[3,4-d]pyrimidin-4-yl]piperazin-1-yl]prop-2-en-1-one], the POC entry in test [1] is listed as “C (“C”>50% POC)”. In addition, in test [2] (NCI-H358, 3 h), the IC50 is more than 1000 nM.
The matching figures for `C=CC(=O)N1CCN(c2nc(OC[C@@H]3CCCN3CCOC)nc3c2CCN(c2cc(O)cc4ccccc24)C3)CC1` [Example 144, (5)-1-(4-(7-(3-hydroxynaphthalen-1-yl)-2-((1-(2-methoxyethyl)pyrrolidin-2-yl)methoxy)-5,6,7,8-tetrahydropyrido[3,4-d]pyrimidin-4-yl)piperazin-1-yl)prop-2-en-1-one]: “C (“C”>50% POC)” and 0.1 to 1000 nM.
On to `C=CC(=O)N1CCN(c2nc(OC[C@@H]3CCCN3C(C)C)nc3c2CCN(c2cc(O)cc4ccccc24)C3)CC1` [Example 145, 1-[4-[7-(3-hydroxy-1-naphthyl)-2-[[(2S)-1-isopropylpyrrolidin-2-yl]methoxy]-6,8-dihydro-5H-pyrido[3,4-d]pyrimidin-4-yl]piperazin-1-yl]prop-2-en-1-one], for which the POC result in test [1] was “C (“C”>50% POC)”. Moreover, the 50% inhibitory concentration (IC50) in test [2] (NCI-H358, 3 h) lay within 0.1 to 1000 nM.
As for `C=CC(=O)N1CCN(c2nc(OC[C@@H]3CCNC3)nc3c2CCN(c2cc(O)cc4ccccc24)C3)CC1` [Example 146, 1-[4-[7-(3-hydroxy-1-naphthyl)-2-[[(3R)-pyrrolidin-3-yl]methoxy]-6,8-dihydro-5H-pyrido[3,4-d]pyrimidin-4-yl]piperazin-1-yl]prop-2-en-1-one], the POC result in test [1] was “B (“B”>25% POC−≤50% POC)”. Besides, the IC50 in test [2] (NCI-H358, 3 h) was more than 1000 nM.
For the compound `C=CC(=O)N1CCN(c2nc(OC[C@@H]3CCCN3C)nc3c2CCN(c2cccc4ccccc24)C3)CC1CC#N` (stereo partly drawn) [Example 147, 2-[4-[2-[[(2S)-1-methylpyrrolidin-2-yl]methoxy]-7-(1-naphthyl)-6,8-dihydro-5H-pyrido[3,4-d]pyrimidin-4-yl]-1-prop-2-enoyl-piperazin-2-yl]acetonitrile], the POC entry in test [1] is given as “C (“C”>50% POC)”. For the same compound, in test [2], the IC50 is 0.1 to 1000 nM.
With `C=CC(=O)N1CCN(c2nc(OC[C@@H]3CCCN3C)nc3c2CCN(c2c(C)ccc4[nH]ncc24)C3)CC1CC#N` (stereo partly drawn) [Example 148, 2-[4-[7-(5-methyl-1H-indazol-4-yl)-2-[[(2S)-1-methylpyrrolidin-2-yl]methoxy]-6,8-dihydro-5H-pyrido[3,4-d]pyrimidin-4-yl]-1-prop-2-enoyl-piperazin-2-yl]acetonitrile], the POC result in test [1] is recorded as “C (“C”>50% POC)”. Further, in test [2], the IC50 lay within 0.1 to 1000 nM.
Turning to `C=CC(=O)N1CCN(c2nc(OC[C@@H]3CCCN3C)nc3c2CCN(c2c(C(F)(F)F)ccc4[nH]ncc24)C3)CC1CC#N` (stereo partly drawn) [Example 149, 2-[4-[2-[[(2S)-1-methylpyrrolidin-2-yl]methoxy]-7-[5-(trifluoromethyl)-1H-indazol-4-yl]-6,8-dihydro-5H-pyrido[3,4-d]pyrimidin-4-yl]-1-prop-2-enoyl-piperazin-2-yl]acetonitrile], the POC result in test [1] is recorded as “B (“B”>25% POC−≤50% POC)”. In addition, the IC50 in test [2] lay in the range of 0.1 to 1000 nM.
In the case of `C=CC(=O)N1CCN(c2nc(O[C@H](C)CN(C)C)nc3c2CCN(c2cc(O)cc4ccccc24)C3)CC1CC#N` (stereo partly drawn) [Example 150, 2-(1-acryloyl-4-(2-(((R)-1-(dimethylamino)propan-2-yl)oxy)-7-(3-hydroxynaphthalen-1-yl)-5,6,7,8-tetrahydropyrido[3,4-d]pyrimidin-4-yl)piperazin-2-yl)acetonitrile], the POC entry in test [1] is given as “C (“C”>50% POC)”. Besides, the IC50 in test [2] (NCI-H358, 3 h) was in the range of 0.1 to 1000 nM.
`C=CC(=O)N1CCN(c2nc(O[C@H](C)CN(C)C)nc3c2CCN(c2cccc4ccccc24)C3)CC1CC#N` (stereo partly drawn) [Example 151, 2-(1-acryloyl-4-(2-(((R)-1-(dimethylamino)propan-2-yl)oxy)-7-(naphthalen-1-yl)-5,6,7,8-tetrahydropyrido[3,4-d]pyrimidin-4-yl)piperazin-2-yl)acetonitrile]: in test [1], the POC entry was “B (“B”>25% POC−≤50% POC)”. In test [2] (NCI-H358, 3 h), the IC50 was more than 1000 nM.
As to `C=CC(=O)N1CCN(c2nc(O[C@H](C)CN(C)C)nc3c2CCN(c2c(C)ccc4[nH]ncc24)C3)CC1CC#N` (stereo partly drawn) [Example 152, 2-[4-[2-[(1R)-2-(dimethylamino)-1-methyl-ethoxy]-7-(5-methyl-1H-indazol-4-yl)-6,8-dihydro-5H-pyrido[3,4-d]pyrimidin-4-yl]-1-prop-2-enoyl-piperazin-2-yl]acetonitrile], the POC result in test [1] is listed as “C (“C”>50% POC)”. Also, the half-inhibitory concentration (IC50) in test [2] lay within 0.1 to 1000 nM.
